The test system of one data set is NCI-H460 spheres. Nature of the data set: Sphere formation assay (tumorsphere self-renewal). The format is cell-based. The note with it: Homo sapiens, read-out: tumorsphere forming efficiency, inhibition; for inhibition at 1 µM: 1.0 μM AGB. As to the method:
NCI-H460 cells were seeded at 3,000 cells/ml per well in specific sphere formation medium (DMEM/F12 supplemented with 20 ng/ml EGF, 20 ng/ml bFGF and 1×B-27) with or without AGB (DMSO as vehicle, 0.5 and 1.0 μM of AGB for the assay) in a 6-well Ultra Low Cluster Plate (Costar®). The concentration of DMSO was normalized to 0.5% in all wells and was 0.5%. The cells were incubated at 37° C. for five days and the spheres were photographed under an inverted microscope at 40× magnification. Primary tummorsphere were collected and enzymatically dissociated using trypsin to generate the secondary tummorsphere. The dissociated cells were re-plated at a density of 2,000 cells/mL for subsequent passages. The images were captured and four fields were randomly chosen and the relative areas occupied by the spheres were measured using ImageJ (National Institutes of Health, Bethesda, MD). Representative images were obtained from three independent experiments.

For data set [1], the system named is patient-derived organoids (PDOs) from a lung cancer patient's metastatic tumor. Nature of the data set: Patient-derived organoid viability (CellTiter Glo). In kind it is cell-based, human. Details: viability of PDO: dose or concentration left out as unconfirmed. The note with it: 72 h. As for the experimental part:
FIG. 1A is a bar graph showing the IC50 values of AGB against indicated cell lines. Cells were treated with AGB at various concentrations for 48 h and processed for MTT assay. The IC50 values were half maximal inhibitory concentration that determined by the fitting curve using the equation from GraphPad Prism 8. FIG. 1B is a bar graph showing the inhibition of colony formation on NCI-H460 cells by AGB. Cells were treated with indicated concentrations of AGB for 8 h. Medium with AGB was then aspirated and cells were re-seeded into a new 12-well cell culture plate. After 14 days, cells were fixed by ethanol followed by staining using crystal violet. Colony numbers were counted and normalized to vehicle control group. Colonies with more than 50 cells were considered. **, p<0.01; ***, p<0.001. […] The numbers of formed tumorsphere were calculated and normalized to the control group of primary passage. […] FIG. 1E is a graph showing the cell viability of CSCs determined by MTT assay. The absorbance of each well was normalized to control wells and data were shown as percentage of cell viabilities. […]
To better simulate the physiological structure and function of in situ tissue, the effect of AGB on the growth of patient-derived organoids (PDOs) isolated from a lung cancer patient's metastatic tumor was evaluated.
In general terms: ATP-based viability assays read luminescence as a measure of living cells.

A further data set deals with HSP60 (Homo sapiens, UniProt P10809). The experiment in a line: Tryptophan fluorescence quenching assay. Particulars: Stern-Volmer analysis; read-out: Kd of AGB binding to HSP60. As for the experimental part: (§1) FIG. 5A is a volcano plot (ΔTm, p-value) for TPP data obtained from NCI-H460 cells with 4 μM AGB treatment for 1 h. The criteria were set as ΔTm>2° C. and p<0.05. FIG. 5B is a graph showing results of the tryptophan fluorescence quenching assay for the direct interaction between AGB and three target proteins. Upper, tryptophan fluorescence titration of recombinant proteins with AGB. […] For CS, its fluorescence decrease was saturated when AGB concentrations increased to about 32 μM. Lower, the normalized tryptophan intensities at an emission of 320 nm were plotted as a function of total added concentration of AGB. The dissociation constants (Kd) between AGB and three proteins were then calculated by fitting this plot with Stern-Volmer Equation. […] The fluorescence intensity was presented as percentage relative to control groups. […]
Sequence of HSP60 (P10809 27-573): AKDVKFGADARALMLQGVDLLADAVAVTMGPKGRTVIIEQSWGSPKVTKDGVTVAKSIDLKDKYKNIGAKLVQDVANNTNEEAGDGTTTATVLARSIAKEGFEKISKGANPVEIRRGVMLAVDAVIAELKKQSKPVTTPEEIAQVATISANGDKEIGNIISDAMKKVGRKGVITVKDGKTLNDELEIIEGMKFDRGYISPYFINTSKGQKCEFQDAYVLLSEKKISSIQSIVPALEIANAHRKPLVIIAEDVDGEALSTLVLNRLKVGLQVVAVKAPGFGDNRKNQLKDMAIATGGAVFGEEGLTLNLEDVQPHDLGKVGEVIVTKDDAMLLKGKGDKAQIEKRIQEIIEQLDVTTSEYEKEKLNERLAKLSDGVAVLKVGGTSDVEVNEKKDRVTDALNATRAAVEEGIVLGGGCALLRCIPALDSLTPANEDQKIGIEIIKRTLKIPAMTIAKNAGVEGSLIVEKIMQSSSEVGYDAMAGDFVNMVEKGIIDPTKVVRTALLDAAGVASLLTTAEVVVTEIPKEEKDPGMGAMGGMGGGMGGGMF
(§2) To further examine whether AGB interacts directly with the above three identified proteins, the intrinsic tryptophan fluorescence properties of these proteins were examined in the presence of AGB at different concentrations. Upon binding with AGB, proteins experience a change of the tryptophan environment, which can be visualized by fluorescence spectroscopy. As shown in FIG. 5B the tryptophan fluorescence of three proteins were all quenched by AGB in a concentration-dependent manner.

A further data set concerns the target T1, TALDO1 (Homo sapiens, UniProt P37837).
T1 construct: endogenous in cells
T1 sequence (P37837 1-337): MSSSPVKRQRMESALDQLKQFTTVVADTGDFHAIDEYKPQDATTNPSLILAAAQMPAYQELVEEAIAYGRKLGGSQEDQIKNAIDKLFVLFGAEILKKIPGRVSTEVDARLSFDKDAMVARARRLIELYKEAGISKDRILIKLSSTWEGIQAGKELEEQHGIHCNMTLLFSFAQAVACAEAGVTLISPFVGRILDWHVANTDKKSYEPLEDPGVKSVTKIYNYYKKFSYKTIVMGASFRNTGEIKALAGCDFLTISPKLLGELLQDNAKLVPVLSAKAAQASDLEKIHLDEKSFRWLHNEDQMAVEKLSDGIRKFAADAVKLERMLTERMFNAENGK
The experiment in a line: Tryptophan fluorescence quenching assay. The note with it: Stern-Volmer analysis; read-out: Kd of AGB binding to TALDO1. As for the experimental part: as §1, §2

pKd: −log10 of the molar value. Read-outs that look alike come from different tables or passages of the source.

As to `CCCC(=O)c1c(O)c(Cc2c(O)c(Cc3c(O)c(C)c(OC)c(C(=O)CCC)c3O)c(O)c(C(=O)[C@@H](C)CC)c2O)c(O)c(C)c1OC` [AGB, Agrimol B], the inhibition (as a rule, the share of the control response that was lost under treatment) at 1 µM with NCI-H460 spheres (NCI-H460, primary tumorspheres) was 40.6%; in the data set on NCI-H460 spheres (NCI-H460, secondary tumorspheres), 69.7%. For the same compound, the inhibition at 0.5 µM in the data set with NCI-H460 spheres (NCI-H460, secondary tumorspheres, 0.5 μM AGB) was 54.7%. Besides, the “viability of PDO” value in data set [1] (AGB, concentration dependent) is “Significant inhibition of viability”. Also, the maximal viability loss entry in data set [1] (PDO) is recorded as “over 99%”. Besides, the pKd – broadly, the Kd on a negative log10 scale, so that one unit is a factor of ten – was 4.57 at HSP60 and 4.64 on TALDO1.
